Assay results taken from PMC11568214, “The impact of 9-azaglycophymine and phenylguanidine derivatives on the proliferation of various breast cancer cell lines in vitro and in vivo” (Scientific Reports, 2024).

Assays:
[1] = tested on: HepG2 cell line; parameters: method as in PMID 34237623; settings: read-out: IC50 against the HepG2 cell line; cited from earlier work
[2] = tested on: MCF-7, MDA-MB-468, BT-474 and HCC1937 breast cancer cells; assay: Fast screening / CV cell viability, breast cancer cell line panel; format: cell-based, human; parameters: reduction of cell viability: concentration or dose not given beside the values; settings: for anti-proliferative / cytotoxic effect: screening at 1, 10 and 50 µM; for concentration below which active in cytotoxicity screening / reduction of cell viability: initial screening; for IC50: Homo sapiens, read-out: IC50 values (National Cancer Institute guideline criterion); for reduction of cell viability: after 72 h of treatment
Protocol: (§1) For initial testing of the cytotoxic effect of the available glycophymine compounds (Table S2), cells were treated with compound in three concentrations: 1, 10 and 50 µM. Cells were seeded in 96-well plates and allowed to adhere overnight. Then they were treated for 72 h under standard culture conditions. […] For IC50 determination, the compounds were tested at seven concentrations (0.78, 1.56, 3.13, 6.25, 12.5, 25 and 50 µM). Subsequently, the cell viability was determined by using the crystal violet (CV) assay. Moreover, the selected compounds were tested against the mouse breast cancer cell line 4T1 (TNBC) as well. The compounds were prepared initially to obtain a stock solution of 20 mM in DMSO. Later, the working solutions were prepared by mixing the required amount of DMSO stock with the optimal medium for each cell line. The DMSO concentration in the final solution was always maintained lower than 0.5% to avoid any DMSO-derived side effects.
(§2) For CV assays, after 72 h treatment, the treatment medium was discarded from the 96-well plates, and the cells were washed using 50 µL of PBS. Cells were fixed by adding 50 µL of 4% (v/v) paraformaldehyde (PFA) in PBS for 15 min at room temperature (RT). Afterwards, PFA was discarded, and the plates were dried for 15 min at RT. 50 µL of CV working solution (0.1% w/v CV in PBS) were added to the wells, followed by 15 min incubation at RT. Subsequently, the CV solution was discarded, and the plates were washed using aqua bidest. (ddH2O) to remove any remaining CV solution. The plates were left to dry overnight at RT, and then 50 µL of 33% (v/v) acetic acid in ddH2O were added to each well. Finally, the absorbance was measured at 570 nm by using a SpectraMax M5 plate reader (Molecular Devices, California, USA) and at 670 nm as background wavelength. […] Additionally, gefitinib, an approved EGFR inhibitor of the quinazoline family, was tested as anti-proliferative positive control. The data represent the mean ± standard deviation derived from three independent biological replicates. Dose–response curves were generated by four-parametric non-linear regression analysis using the GraphPad Prism software (version: 10.1, San Diego, CA, USA). Based on that, IC50 values and standard deviations were calculated for each replicate individually.

[3] = tested on: BT-474; assay: Crystal violet (CV) cell viability assay, IC50 determination; format: cell-based; settings: Homo sapiens, 72 h treatment, mean ± SD
Protocol: as §1, §2

[4] = tested on: MCF-7; assay: as above; format: cell-based; settings: Homo sapiens, MCF7, 72 h treatment, mean ± SD
Protocol: as §1, §2

[5] = tested on: HCC1937; assay: as above; format: cell-based; settings: Homo sapiens, 72 h treatment, mean ± SD
Protocol: as §1, §2

[6] = tested on: 4T1; assay: as above; format: cell-based; settings: Mus musculus, 72 h treatment, mean ± SD
Protocol: as §1, §2

[7] = tested on: MDA-MB-468; assay: as above; format: cell-based, human; settings: Homo sapiens, MDA-MB-468, 72 h treatment, mean ± SD
Protocol: as §1, §2

| IC50 [3] [µM] | IC50 [4] [µM] | IC50 [5] [µM] | IC50 [6] [µM] | IC50 [7] [µM] | Compound | IC50 [1] [µM] | anti-proliferative / cytotoxic effect ([2]; 72 h) | cytotoxicity relative to compound 19 ([2]; 72 h, CV assay) | concentration below which active in cytotoxicity screening ([2]; 72 h) | IC50 ([2]; 72 h) [µg/mL] | reduction of cell viability [2] [%] |
| --- | --- | --- | --- | --- | --- | --- | --- | --- | --- | --- | --- |
|  |  |  |  |  | COc1cc(C(=O)c2nc3ccccc3c(=O)[nH]2)cc(OC)c1OC [2-(3,4,5-trimethoxybenzoyl)quinazolin-4(3H)-one] | 1.22 ± 0.12 |  |  |  |  |  |
|  |  |  |  |  | O=c1[nH]c(Nc2ccccc2)nc2ccccc12 [Compound 15, 2-(phenylamino)quinazolin-4(1H)-one] |  | did not show any cytotoxic effect |  |  |  |  |
| 9.9 ± 1.5 | 10 ± 0.5 | 14.8 ± 3.7 | 23.5 ± 7.2 | 13 ± 0.4 | O=c1[nH]c(Nc2ccc(Cl)cc2)nc2ccccc12 [Compound 22] |  | significantly reduced cell proliferation | twofold less | below 10 µM | < 30 | ≥ 50 |
| 4.4 ± 0.1 | 5.7 ± 0.6 | 3.9 ± 0.2 | 7.9 ± 0.6 | 6.9 ± 0.2 | O=c1[nH]c(Nc2ccccc2)nc2cc([N+](=O)[O-])ccc12 [Compound 46] |  | significantly reduced cell proliferation |  | below 10 µM | < 30 | ≥ 50 |
| 4.5 ± 0.2 | 6.3 ± 0.4 | 4.4 ± 0.3 | 12.6 ± 1.2 | 8 ± 0.3 | O=c1[nH]c(Nc2ccccc2)nc2ccc([N+](=O)[O-])cc12 [Compound 47] |  | significantly reduced cell proliferation |  | below 10 µM | < 30 | ≥ 50 |
|  |  |  |  |  | Nc1ccc2c(=O)[nH]c(Nc3ccccc3)nc2c1 [Compound 48] |  | completely lack cytotoxic activity |  |  |  |  |
|  |  |  |  |  | Nc1ccc2nc(Nc3ccccc3)[nH]c(=O)c2c1 [Compound 49] |  | completely lack cytotoxic activity |  |  |  |  |

| Compound | IC50 [3] [µM] | IC50 [4] [µM] | IC50 [5] [µM] | IC50 [6] [µM] | IC50 [7] [µM] | IC50 [1] [µM] | anti-proliferative / cytotoxic effect ([2]; 72 h) | cytotoxicity relative to compound 19 ([2]; 72 h, CV assay) | concentration below which active in cytotoxicity screening ([2]; 72 h) | IC50 ([2]; 72 h) [µg/mL] | reduction of cell viability [2] [%] |
| --- | --- | --- | --- | --- | --- | --- | --- | --- | --- | --- | --- |
| O=c1[nH]c(Nc2ccc(Cc3ccc([N+](=O)[O-])cc3[N+](=O)[O-])cc2)nc2ccccc12 [Compound 24] | 9.7 ± 1.3 | 10.3 ± 1.3 | 11 ± 1.9 | 11.3 ± 3.5 | 11.2 ± 1.8 |  | significantly reduced cell proliferation |  | below 10 µM | < 30 | ≥ 50 |
